Experimental data as given in paper PMC7000758 (Nature Communications, 2020).
“And” between values parts separate entries of the source, which are not always exact repeats. Equal values may be shown once. “Also recorded” adds a separate entry of the source. Read-outs that look alike come from different tables or passages of the source. Blank lines part the entries; values can stand above or below the molecule they belong to.

Experiments:
[1] = system: choroidal NV at Bruch's membrane rupture sites; assay: Mouse model of laser-induced choroidal NV (type 2); assay type: in vivo, C57BL/6 mice; details: for CNVsize: individual eyes
Experimental: Mice were treated in accordance with the Association for Research in Vision and Ophthalmology Guidelines on the care and use of animals in research. All protocols were approved by the Animal Care and Use Committee of the Johns Hopkins University School of Medicine. Laser photocoagulation-induced rupture of Bruch’s membrane was used to generate choroidal NV[34]. […] One week after rupture of Bruch’s membrane, mice were euthanized, eyes were removed, anterior segments, retinas, and vitreous was removed, and eye cups were stained with fluorescein isothiocyanate (FITC)-conjugated GSA (Vector Laboratories, Burlingame, CA), and flat mounted. Flat mounts were examined by fluorescence microscopy and the area of each choroidal NV was measured by image analysis with Image-Pro Plus software (Media Cybernetics, Silver Spring, MD) by an observer masked with respect to experimental groups. The three areas obtained in each eye were averaged to give a single experimental value.

[2] = set-up: method as in rabbit PK study previously conducted by the authors; details: rabbit; ref rabbit PK study previously conducted by the authors; cited from earlier work
[3] = Melanin binding of sunitinib in vitro; assay type: in vitro ADME, sepia officialis; details: for percentage of melanin-bound sunitinib: 10 mg melanin in PBS, 1 h
[4] = cited from earlier work
[5] = Cataract after intravitreous injection in mice; assay type: in vivo, C57BL/6 mice; details: intravitreous doses of free sunitinib >0.5 µg
Text: The murine model of laser-induced rupture of Bruch’s membrane results in choroidal NV that is similar to type 2 choroidal NV in patients with NVAMD, because the new vessels originate from the choroid and penetrate through Bruch’s membrane and the RPE into the subretinal space. Studies in this model helped to implicate VEGF as a critical stimulus for NVAMD[4] and predicted the clinical benefits seen with aflibercept, a recombinant VEGF-neutralizing protein commonly used to treat patients with NVAMD[6],[35].

[6] = for Average release (%): Fig 1b dissolution of suspension
Experimental: At selected time points, 3 ml of the release medium was collected and replaced with 3 ml fresh release medium.

[7] = Pharmacokinetic study in mice (drug remaining in eye, LC-MS); assay type: in vivo, C57BL/6N mice; details: for Remaining Drug (Normalized against T0) (%): mouse eye, intravitreous 1 µg sunitinib or equivalent
Text: Twenty male or female 5–7-week-old C57BL/6N mice were anesthetized and the pupils were dilated as previously described. […] […], 5 mice from each condition were euthanized and the whole globes were collected and transferred to a bioanalytical facility for measurement of drug levels by liquid chromatography–mass spectrometry (LC–MS). The amount of drug remaining in the eye at 30 days was compared to and presented as a percentage of the initial dose injected in the eye.

rhodopsin kinase (GRK-1) = assay: Photoreceptor survival: rhodopsin kinase (GRK-1)/actin immunoblot of retinal homogenates; assay type: in vivo, rho/VEGF mice
Experimental: At P42, some mice were euthanized and eyes were marked at the 12:00 pole and frozen in embedding compound. […] At […] five mice were euthanized and retinas were dissected from each eye and homogenized in 150 μl lysis buffer (Abcam, Cambridge, MA) followed by high speed centrifuge (16,000 × g, 15 min). Supernatants were collected in pre-chilled eppendorf tubes. […] Membranes were probed with anti-GRK1 antibody (1:1000; ThermoFischer Scientific, Catalog no. PA5-13725, Lot no. […] Catalog no. A2066, Lot no. 019M4777V, Sigma Life Science, St. Louis, MO) overnight at 4 °C. […] Louis, MO) was added followed by incubation in SuperSignal West Dura Extended Duration Substrate (Thermofisher), and Western blots were imaged and analyzed with a Bio-mad imaging system.

[8] = system: vascular leakage (vitreous albumin); assay: Measurement of albumin in vitreous samples (ELISA); assay type: in vivo, rho/VEGF mice
Text: Vitreous samples were obtained by inserting a micropipette into the vitreous cavity and gently aspirating the vitreous. Using the manufacturer’s instructions, a mouse albumin ELISA kit (ab108791; […] The plate wa read at 450 and 570 nm with SpectraMax Plus (Molecular Devices, San Jose, CA).

VEGF-induced leukostasis = assay: Retinal leukostasis (concanavalin A perfusion); assay type: in vivo, C57BL/6 mice; details: 40 µg
Experimental: Leukostasis was measured by staining leukocytes with rhodamine- or FITC-labeled conA[52]. […] Vector Labs Thermofisher). The vasculature was flushed for 4 min with PBS to remove residual unbound conn A. […] Retinas were examined by fluorescence microscopy and the number of intravascular leukocytes throughout the entire retina were counted by an investigator masked with respect to treatment group. […] After washing, retinas were incubated in Alexa Fluor 594-conjugated goat anti-rat secondary antibody (1:500; A-11007 Invitrogen) for 1 h at room temperature. Retinas were washed, flat mounted and examined by fluorescence microscopy.

subretinal NV = assay: Subretinal NV in rho/VEGF transgenic mice (type 3 choroidal NV); assay type: in vivo; details: for Mean area of sunretinal NV per retina: Fig 4b, 40 µg at P14, individual retinas
Experimental: At P21, P28, P35, or P42, mice were euthanized and retinas were stained with FITC-labeled GSA lectin and flat mounted with photoreceptors facing up. Retinal flat mounts were examined by fluorescence microscopy and the area of subretinal NV was measured by image analysis by a masked observer.

[9] = system: photoreceptors (outer nuclear layer); assay: Photoreceptor survival: ONL thickness in mice with type 3 choroidal NV; assay type: in vivo, rho/VEGF mice; details: for ONL thickness: Fig 5b, 40 µg, P42, individual eyes

percentage of drug bound to melanin ([3]; at a ratio of <10): 96–99.8%
percentage of melanin-bound sunitinib ([3]; sunitinib-to-melanin mass ratio 0.001%): 99.8%
percentage of melanin-bound sunitinib ([3]; sunitinib-to-melanin mass ratio 20%): ~ 80%
cataract [5]: severe cataract
Average release (%) ([6]; 0.125 days): 34.3%
Average release (%) ([6]; 1 day): 51.9%
Average release (%) ([6]; 3 days): 68.4%
Average release (%) ([6]; 10 days): 89.0%
Average release (%) ([6]; 17 days): 95.0%
Average release (%) ([6]; 24 days): 99.5%
Average release (%) ([6]; 30 days): 100.0%
half-life ([7]; both sexes, C57BL/6N, mouse, whole eye (globe), other: intravitreous injection, 1 µg, read-out: overall half-life in mouse eyes (converted)): ~50.4 h
Remaining Drug (Normalized against T0) (%) ([7]; day 7, listed as Sunitinib Suspension): 10.1%
Remaining Drug (Normalized against T0) (%) ([7]; day 7, listed as free sunitinib): 10.1±0.7%
Remaining Drug (Normalized against T0) (%) ([7]; day 30, listed as Sunitinib Suspension): 8.8%
Remaining Drug (Normalized against T0) (%) ([7]; day 30, listed as sunitinib drug suspension): 9%
Molecule: CCN(CC)CCNC(=O)c1c(C)[nH]c(/C=C2\C(=O)Nc3ccc(F)cc32)c1C [sunitinib, reference compound]
CNVsize ([1]; Fig 2c, intravitreous free sunitinib 0.1µg, 1 week): 0.01929 mm2 and 0.0114 mm2 and 0.03268 mm2 and 0.02288 mm2 and 0.01524 mm2 and 0.02254 mm2 and 0.02987 mm2 and 0.01948 mm2 and 0.01091 mm2
CNVsize ([1]; Fig 2c, intravitreous free sunitinib 0.5µg, 1 week): 0.008346 mm2 and 0.0258 mm2 and 0.01396 mm2 and 0.0209 mm2 and 0.02253 mm2 and 0.02124 mm2 and 0.01904 mm2 and 0.01077 mm2 and 0.02107 mm2 and 0.01493 mm2
mean area of choroidal NV vs PBS fellow eye ([1]; intravitreous 0.5 or 0.1 µg free sunitinib, 1 week): no significant difference; also recorded: no significant reduction
vitreous half-life [2]: ~ 2 days
solubility in acidic aqueous solutions ([4]; pH 1.2–6.8): high solubility
aqueous solubility ([4]; pH 7.4): low aqueous solubility
behaviour in release medium in vitro ([6]; Fig. 1b, open squares): rapidly eluted and dissolved in release medium

Molecule: aflibercept
rhodopsin kinase/actin ratio vs PBS eyes (rhodopsin kinase (GRK-1); 40 µg at P14, P49): no difference
GRK-1/Actin (rhodopsin kinase (GRK-1); Fig 5d, 40 µg, P49, individual retinas): 0.8885 and 0.8156 and 1.021 and 0.9707 and 0.8036
CNVsize ([1]; Fig 2d, intravitreous 40 µg, 1W): 0.008066 mm2 and 0.009648 mm2 and 0.01333 mm2 and 0.01287 mm2 and 0.01253 mm2 and 0.01268 mm2 and 0.009735 mm2 and 0.0107 mm2
CNVsize ([1]; Fig 2d, intravitreous 40 µg, 9W): 0.03895 mm2 and 0.02251 mm2 and 0.03758 mm2 and 0.02161 mm2 and 0.01535 mm2 and 0.02051 mm2 and 0.02183 mm2
CNVsize ([1]; Fig 2d, intravitreous 40 µg, 15W, listed as Alfibercept): 0.02431 mm2 and 0.01432 mm2 and 0.01526 mm2 and 0.01738 mm2 and 0.01801 mm2 and 0.01547 mm2
choroidal NV vs PBS fellow eye ([1]; intravitreous 40 µg, 1 week after injection): significant suppression; also recorded: significant reduction
Concentrate of Albmin ([8]; Fig 4d, vitreous, 1 week after 40 µg at P28, individual eyes): 0.1634 µg and 0.1282 µg and 0.1305 µg and 0.1935 µg and 0.4253 µg
mean vitreous albumin concentration vs PBS eyes ([8]; P28 rho/VEGF mice, 1 week after intravitreous 40 µg): significantly less; also recorded: significant reduction
mean number of adherent intravascular leukocytes vs PBS eyes (VEGF-induced leukostasis; 200 ng VEGF one week later, 24 h): significant reduction
Intravascular leukocytes per retina (VEGF-induced leukostasis; Fig 6a, individual retinas): 51 and 28 and 33 and 20 and 18 and 23 and 44 and 54
Mean area of sunretinal NV per retina (subretinal NV; P21): 0.006443 mm2 and 0.004033 mm2 and 0.006827 mm2 and 0.01579 mm2 and 0.001837 mm2 and 0.02155 mm2 and 0.01187 mm2 and 0.0074 mm2 and 0.009835 mm2 and 0.01142 mm2 and 0.01439 mm2 and 0.004674 mm2
Mean area of sunretinal NV per retina (subretinal NV; P28): 0.01232 mm2 and 0.01247 mm2 and 0.01867 mm2 and 0.01277 mm2 and 0.01806 mm2 and 0.01223 mm2 and 0.007648 mm2 and 0.002213 mm2 and 0.009102 mm2
Mean area of sunretinal NV per retina (subretinal NV; P35): 0.01325 mm2 and 0.02508 mm2 and 0.02389 mm2 and 0.02314 mm2 and 0.01559 mm2 and 0.02014 mm2 and 0.01286 mm2 and 0.008195 mm2 and 0.01062 mm2 and 0.006501 mm2 and 0.02165 mm2 and 0.01911 mm2 and 0.01968 mm2 and 0.008771 mm2 and 0.02218 mm2 and 0.008675 mm2
Mean area of sunretinal NV per retina (subretinal NV; P42): 0.01663 mm2 and 0.008316 mm2 and 0.01691 mm2 and 0.01919 mm2 and 0.01735 mm2 and 0.02425 mm2 and 0.00731 mm2 and 0.02809 mm2 and 0.01595 mm2
duration of inhibition of subretinal NV (subretinal NV; intravitreous 40 µg): 1 week
mean area of NV per retina vs PBS eyes (subretinal NV; intravitreous 40 µg at P14, P21): significantly less; also recorded: significantly lower
mean ONL thickness vs PBS eyes ([9]; 40 µg at P14, measured at P42): no significant difference
ONL thickness ([9]; location I1): 0.0549 mm and 0.04725 mm and 0.03173 mm and 0.03578 mm and 0.03893 mm and 0.04095 mm and 0.03375 mm
ONL thickness ([9]; location I2): 0.0504 mm and 0.04905 mm and 0.03735 mm and 0.04072 mm and 0.04027 mm and 0.05108 mm and 0.0387 mm
ONL thickness ([9]; location I3): 0.05017 mm and 0.03982 mm and 0.03465 mm and 0.03645 mm and 0.0351 mm and 0.04972 mm and 0.04208 mm
ONL thickness ([9]; location S1): 0.04253 mm and 0.0441 mm and 0.03465 mm and 0.0414 mm and 0.04478 mm and 0.04545 mm
ONL thickness ([9]; location S2): 0.04208 mm and 0.05085 mm and 0.0423 mm and 0.04275 mm and 0.04905 mm and 0.03982 mm and 0.0504 mm
ONL thickness ([9]; location S3): 0.04163 mm and 0.0486 mm and 0.03825 mm and 0.04095 mm and 0.04455 mm and 0.03915 mm and 0.0495 mm
